According to patent US20060252045A1, “Methods and materials for identifying agents which modulate bone remodeling and agents identified thereby” (priority 2003, published 2006):

What was measured:
[1] = system: Wnt/β-catenin target gene expression in MC3T3 cells; test: Flexercell mechanical load gene expression in MC3T3 cells (real-time PCR); details: for load induced Frizzled 2, eNOS, Fos and Jun gene expression: MC3T3, 1-60 μM added 1 hr prior to load; for load induced Connexin 43, Cyclin D1, Wnt 10b, SFRP1 and COX-2 gene expression: MC3T3, 1-60 μM added 1 hr prior to load (3,400 με, 5 hrs)
Procedure: For these experiments, the mouse MC3T3 osteoblastic cells were cultured in alpha minimum essential media (αMEM) (Invitrogen) supplemented with 10% heat inactivated FBS, 1% glutamax (Invitrogen) and 1% penicillin/streptomycin (Invitrogen). […] For those samples being pretreated in serum free media the cells were washed twice each with 2 mL of basal αMEM media prior to adding the BSA containing media. […] The cells were then subjected to mechanical distortion equivalent to 3,400 με (2 Hz, 7200 cycles/hr), for 5 hrs using a FX-3000 Flexercell® strain unit (Flexcell International Corp). RNA was then harvested (using the Qiagen Rneasy mini kit) immediately or 24 hr post loading from both the mechanical strained samples as well as the non-strained controls. All data shown in the examples that utilize the FlexerCell were derived from the RNA immediately harvested following loading.
Real-time PCR was then performed for the indicated genes using mouse gene specific primers and probes as discussed above.
RNA was isolated immediately after application of load and processed for TaqMan® analysis. The transcripts analyzed were COX-2, eNOS, Connexin 43, SFRP1, Wnt10B, cyclin D1, Frizzled 2, WISP2, Fos and Jun (FIG. 15).
Here, Wnt 3A conditioned media was obtained from mouse L-cells transfected with murine Wnt 3A. The MC3T3 cells were seeded and cultured for 3 days in growth media until confluence, as described above. The media for the MC3T3 cells was then changed to BSA containing media, and the cells were incubated for 24 hours. The BSA-containing media was then removed and replaced with fresh BSA media at a final volume of 1 mL containing various amounts of L-cell Wnt 3A conditioned media or control conditioned media from untransfected L-cells. The amount of Wnt 3A conditioned media varied from 0.5, 2.0, 5.0, 10.0, 20.0 and 100 μL in a final volume of 1 ml serum free BSA media. The MC3T3 cells were then subjected to 3,400 με at 2 Hz, 7200 cycles/hr for 5 hours as described in the prior examples.

mouse calvariae = test: Mouse calvarial model: calvarial thickness (histomorphometry); assay type: in vivo; details: 20 μg/kg/day
Procedure: Following sacrifice by CO2 narcosis, calvariae were removed intact, soft tissues were gently dissected, and the bones were fixed in 70% ethanol for 24 h for further processing and analysis. Calvariae were then bisected perpendicular to the sagittal suture through the central portion of the parietal bones parallel to the lambdoidal and coronal sutures. The anterior portion of the calvaria was used for paraffin sections, and the posterior portion of the calvaria was used for frozen sections. Four to five 5 μm-thick representative, non-consecutive step sections were cut. The paraffin sections are routinely stained with hematoxylin and eosin (H&E) for the measurement of calvarial thickness. The frozen sections were used for alkaline phosphatase detection. To facilitate histomorphometric measurements, a standard length of 2 mm of each section from the edge of the sagittal suture to the muscle insertion at the lateral border of each bone was used. All measurements were made using the R&M Biometrics Inc. Bioquant Image Analysis System.

[2] = system: alkaline phosphatase activity in calvarial osteoblasts; test: Mouse calvarial model: alkaline phosphatase histochemical staining; assay type: in vivo; details: local administration, 7 days, vs vehicle
Procedure: Following sacrifice by CO2 narcosis, calvariae were removed intact, soft tissues were gently dissected, and the bones were fixed in 70% ethanol for 24 h for further processing and analysis. Calvariae were then bisected perpendicular to the sagittal suture through the central portion of the parietal bones parallel to the lambdoidal and coronal sutures. The anterior portion of the calvaria was used for paraffin sections, and the posterior portion of the calvaria was used for frozen sections. Four to five 5 μm-thick representative, non-consecutive step sections were cut. […] The frozen sections were used for alkaline phosphatase detection. To facilitate histomorphometric measurements, a standard length of 2 mm of each section from the edge of the sagittal suture to the muscle insertion at the lateral border of each bone was used. All measurements were made using the R&M Biometrics Inc. Bioquant Image Analysis System.
The activity of Alkaline Phosphatase (ALPase) was assessed with a histochemical stain using a Vector Red Alkaline Phosphatase Substrate Kit (Vector Laboratories, Inc. Burlingame, Calif.) in 6 μm frozen sections of the mouse parietal bone after fixing in 70% Ethanol.

β-catenin = test: Mouse calvarial model: β-catenin immunohistochemistry; assay type: in vivo; details: local injection
Procedure: Following sacrifice by CO2 narcosis, calvariae were removed intact, soft tissues were gently dissected, and the bones were fixed in 70% ethanol for 24 h for further processing and analysis. Calvariae were then bisected perpendicular to the sagittal suture through the central portion of the parietal bones parallel to the lambdoidal and coronal sutures. The anterior portion of the calvaria was used for paraffin sections, and the posterior portion of the calvaria was used for frozen sections. Four to five 5 μm-thick representative, non-consecutive step sections were cut.
After fixation, the anterior portion of the calvaria was decalcified in Surgipath Decalcifier II (Richmond, Ill.) for 7-8 h and then dehydrated in graded alcohol. Four to five 5 μm-thick representative, non-consecutive coronal step paraffin sections were cut. […] The binding of the antibody to the epitope was visualized (1 μg/1 mL) using an avidin-linked AP system (Vector Laboratories, Burlingame, Calif.). Controls comprised samples with the avidin-AP in the absence of primary antibody.

[3] = system: Dkk1 suppressed Wnt1/Wnt 3A TCF-signal in U2OS cells; test: Release of Dkk1 mediated inhibition of TCF-signal in U2OS cells; assay type: cell-based, human; details: Dkk1 0.1 μg/well co-transfected with Wnt1 or Wnt 3A
Procedure: The final readout is activation of Dkk1 mediated suppressed TCF-signal. […] The experiment represented in FIG. 2 involved U2OS (ATCC) bone cells and is based on the endogenous expression of LRP5/6 receptors. […] 10 μL of the 15× stock was added per well along with appropriately diluted vehicle (i.e., DMSO) control.

Wnt 3A
cyclin D1, connexin 43, SFRP1, Wnt 10B, WISP2, COX-2, FOS and JUN gene expression, alone ([1]; MC3T3, Wnt 3A conditioned media, no load): no effect

CS(=O)(=O)Nc1ccc([N+](=O)[O-])cc1OC1CCCCC1 [NS-398, N-(2-cyclohexyloxy-4-nitrophenyl)methanesulfonamide]
load induced Frizzled 2, eNOS, Fos and Jun gene expression [1]: no effect | load induced Connexin 43, Cyclin D1, Wnt 10b, SFRP1 and COX-2 gene expression [1]: block the induction | load induced Connexin 43, Cyclin D1, Wnt 10b, SFRP1 and COX-2 gene expression ([1]; listed as COX-2 inhibitor): does not induce transcription | load induced Frizzled 2, eNOS, Fos and Jun gene expression ([1]; listed as COX-2 inhibitor): independent of COX-2 activity

Human PTH (1-34): Human parathyroid hormone (1-34), positive control in the calvarial model (SVSEIQLMHNLGKHLNSMERVEWLRKKLQDVHNF; Parathyroid hormone; UniProt P01270 32-65, looked up, fragment)
effect on calvarial thickness (positive control) (mouse calvariae): significant increase in calvarial thickness | alkaline phosphatase (ALPase) activity in osteoblasts [2]: markedly enhanced | β-catenin expression in osteoblastic cells lining the periosteum (β-catenin): no effect

B1: Dkk1: Wnt antagonist co-transfected into U2OS cells; inhibits LRP5 activity (protein, UniProt O94907 32-266, looked up)
Dickkopf-related protein 1: TLNSVLNSNAIKNLPPPLGGAAGHPGSAVSAAPGILYPGGNKYQTIDNYQPYPCAEDEECGTDEYCASPTRGGDAGVQICLACRKRRKRCMRHAMCCPGNYCKNGICVSSDQNHFRGEIEETITESFGNDHSTLDGYSRRTTLSSKMYHTKGQEGSVCLRSSDCASGLCCARHFWSKICKPVLKEGQVCTKHRRKGSHGLEIFQRCYCGEGLSCRIQKDHHQASNSSRLHTCQRH
effect on Wnt1/Wnt 3A TCF-activity [3]: suppressed almost completely
